According to US9440964B2, “Pesticidal compositions and processes related thereto” (Dow AgroSciences LLC, priority 2011, dated 2016):
Read-outs that look alike come from different tables or passages of the source.

How the values were obtained:
Type in all cases: in vivo
BAW (Spodoptera exigua) = assay: Bioassay on Beet Armyworm (BAW), 128-well diet tray; conditions: Spodoptera exigua, 168 h, read-out: Rating BAW
In short: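 Second-instar Spodoptera exigua larvae (one to five per well) placed on artificial diet surface-treated with 50 μg/cm^2 compound in 90:10 acetone-water, dried, eight wells per compound. Held 5–7 days at 25 °C, 14:10 light-dark; percent mortality averaged across wells.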

CEW (Helicoverpa zea) = assay: Bioassay on Corn Earworm (CEW), 128-well diet tray; conditions: Helicoverpa zea, 168 h, read-out: Rating CEW
In short: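 Helicoverpa zea (corn earworm) was tested in a 128-well diet tray. Each 3 mL well received one to five second instar larvae on diet treated with the test material in an acetone-water mixture, applied to eight wells and dried. Trays were sealed with clear self-adhesive covers, kept at 25° C., 14:10 light-dark for five to seven days, then percent mortality was averaged across eight wells.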

[1] = system: Yellow Fever Mosquito YFM (Aedes aegypti); assay: Bioassay on Yellow Fever Mosquito (YFM) larvae, 96-well plate; conditions: mortality of about 1 day-old larvae, scored after 3 days
Procedure: Certain molecules disclosed in this document were tested against YFM using procedures described in the following paragraph. In the reporting of the results, the “YFM Rating Table” was used (See Table Section).
Master plates containing 400 μg of a molecule dissolved in 100 μL of dimethyl sulfoxide (DMSO) (equivalent to a 4000 ppm solution) are used. A master plate of assembled molecules contains 15 μL per well. To this plate, 135 μL of a 90:10 water:acetone mixture is added to each well. A robot (Biomek® NXP Laboratory Automation Workstation) is programmed to dispense 15 μL aspirations from the master plate into an empty 96-well shallow plate (“daughter” plate). There are 6 reps (“daughter” plates) created per master. The created daughter plates are then immediately infested with YFM larvae.
The day before plates are to be treated, mosquito eggs are placed in Millipore water containing liver powder to begin hatching (4 g. into 400 ml). After the daughter plates are created using the robot, they are infested with 220 μL of the liver powder/larval mosquito mixture (about 1 day-old larvae). After plates are infested with mosquito larvae, a non-evaporative lid is used to cover the plate to reduce drying. Plates are held at room temperature for 3 days prior to grading. After 3 days, each well is observed and scored based on mortality.
(§1) The results are indicated in the table entitled “Table ABC: Biological Results” (See Table Section).

[2] = system: Green Peach Aphid (GPA) (Myzus persica); assay: Bioassay on Green Peach Aphid (GPA), cabbage seedling foliar spray; conditions: 72 h, read-out: Rating GPA
Procedure: Certain molecules disclosed in this document were tested against GPA using procedures described in the following example. In the reporting of the results, the “GPA Rating Table” was used (See Table Section).
Cabbage seedlings grown in 3-inch pots, with 2-3 small (3-5 cm) true leaves, were used as test substrate. The seedlings were infested with 20-50 GPA (wingless adult and nymph stages) one day prior to chemical application. Four pots with individual seedlings were used for each treatment. Test compounds (2 mg) were dissolved in 2 mL of acetone/MeOH (1:1) solvent, forming stock solutions of 1000 ppm test compound. The stock solutions were diluted 5× with 0.025% Tween 20 in H2O to obtain the solution at 200 ppm test compound. A hand-held aspirator-type sprayer was used for spraying a solution to both sides of […] leaves until runoff. Reference plants (solvent check) were sprayed with the diluent only containing 20% by volume of acetone/MeOH (1:1) solvent. Treated plants were held in a holding room for three days at approximately 25° C. and ambient relative humidity (RH) prior to grading. Evaluation was conducted by counting the number of live aphids per plant under a microscope. Percent Control was measured by using Abbott's correction formula (W. S. Abbott, “A Method of Computing the Effectiveness of an Insecticide” J. Econ. Entomol. 18 (1925), pp. 265-267) as follows. Corrected % Control=100*(X−Y)/X • where • X=No. of live aphids on solvent check plants and • Y=No. of live aphids on treated plants
as §1

[3] = percent mortality, second instar larvae, 50 μg/cm^2 on diet, five to seven days
[4] = corrected % control (Abbott), 200 ppm foliar spray on cabbage, three days

Cc1cccc(C)c1N/C(=N/C(=O)Nc1ccc(-c2ncn(-c3ccc(OC(F)(F)F)cc3)n2)cc1)SCOC(=O)C(C)C [Molecule A4, (E)-(N′-(2,6-Dimethylphenyl)-N-(4-(1-(4-(trifluoromethyoxy)phenyl)-1H-1,2,4-triazol-3-yl)phenylcarbamoyl)carbamimidoylthio)methyl isobutyrate]
pest or weed control at 50 µg/cm2 (BAW (Spodoptera exigua); [3]): 50 to 100%
pest or weed control at 50 µg/cm2 (CEW (Helicoverpa zea); [3]): 50 to 100%
Rating YFM [1]: A (80-100)
pest or weed control at 200 ppm [2, 4]: 0 to 80%

COc1cc(C)c(N2C(=O)CS/C2=N\C(=O)Nc2ccc(-c3ncn(-c4ccc(OC(F)(F)F)cc4)n3)cc2)c(C)c1 [Molecule A44]
pest or weed control at 50 µg/cm2 (BAW (Spodoptera exigua); [3]): 50 to 100%
pest or weed control at 50 µg/cm2 (CEW (Helicoverpa zea); [3]): 50 to 100%
Rating YFM [1]: A (80-100)
pest or weed control at 200 ppm [2, 4]: 0 to 80%

COc1cc(C)c(N/C(=N/C(=O)Nc2ccc(-c3ncn(-c4ccc(C(F)(F)F)cc4)n3)cc2)SCOC(=O)CNC(=O)OCc2ccccc2)c(C)c1 [Molecule A9, (E)-((N′-(4-Methoxy-2,6-dimethylphenyl)-N-((4-(1-(4-(trifluoromethyl)phenyl)-1H-1,2,4-triazol-3-yl)phenyl)carbamoyl)carbamimidoyl)thio)methyl 2-(((benzyloxy)carbonyl)amino)acetate]
pest or weed control at 50 µg/cm2 (BAW (Spodoptera exigua)): 50 to 100%
pest or weed control at 50 µg/cm2 (CEW (Helicoverpa zea)): 50 to 100%
pest or weed control at 200 ppm ([2]; foliar): 0 to 80%

Cc1cccc(C)c1N1C(=O)CS/C1=N\C(=O)Nc1ccc(-c2ncn(-c3ccc(OC(F)(F)F)cc3)n2)cc1 [Molecule A14, (Z)-1-(3-(2,6-dimethylphenyl)-4-oxothiazolidin-2-ylidene)-3-(4-(1-(4-(trifluoromethoxy)phenyl)-1H-1,2,4-triazol-3-yl)phenyl)urea]
pest or weed control at 50 µg/cm2 (BAW (Spodoptera exigua); [3]): 50 to 100%
pest or weed control at 50 µg/cm2 (CEW (Helicoverpa zea); [3]): 50 to 100%
Rating YFM [1]: A (80-100)
pest or weed control at 200 ppm [2, 4]: 0 to 80%

CCc1ccccc1N/C(S)=N/C(=O)Nc1ccc(-c2ncn(-c3ccc(OC(F)(F)F)cc3)n2)cc1 [Molecule A46]
pest or weed control at 50 µg/cm2 (BAW (Spodoptera exigua); [3]): 50 to 100%
pest or weed control at 50 µg/cm2 (CEW (Helicoverpa zea); [3]): 50 to 100%
Rating YFM [1]: A (80-100)
pest or weed control at 200 ppm [2, 4]: 0 to 80%

Cc1cccc(C)c1N/C(S)=N/C(=O)Nc1ccc(-c2ncn(-c3ccc(OC(F)(F)F)cc3)n2)cc1 [Molecule A11]
pest or weed control at 50 µg/cm2 (BAW (Spodoptera exigua); [3]): 50 to 100%
pest or weed control at 50 µg/cm2 (CEW (Helicoverpa zea); [3]): 50 to 100%
pest or weed control at 200 ppm [2, 4]: 0 to 80%

COc1cc(C)c(N/C(=N/C(=O)Nc2ccc(-c3ncn(-c4ccc(OC(F)(F)F)cc4)n3)cc2)SCOC(=O)C(C)C)c(C)c1 [Molecule A7, (E)-(N′-(2,6-Dimethyl-4-methoxyphenyl)-N-(4-(1-(4-(trifluoromethyoxy)phenyl)-1H-1,2,4-triazol-3-yl)phenylcarbamoyl)carbamimidoylthio)methyl isobutyrate]
pest or weed control at 50 µg/cm2 (BAW (Spodoptera exigua); [3]): 50 to 100%
pest or weed control at 50 µg/cm2 (CEW (Helicoverpa zea); [3]): 50 to 100%
pest or weed control at 200 ppm [2, 4]: 0 to 80%

COc1ccc(N/C(O)=C/C(=O)Nc2ccc(-c3ncn(-c4ccc(OC(F)(F)F)cc4)n3)cc2)c(C)c1 [Molecule A33, (Z)-3-hydroxy-3-(4-methoxy-2-methylphenylamino)-N-(4-(1-(4-(trifluoromethoxy)phenyl)-1H-1,2,4-triazol-3-yl)phenyl)acrylamide]
pest or weed control at 50 µg/cm2 (BAW (Spodoptera exigua); [3]): 50 to 100%
pest or weed control at 50 µg/cm2 (CEW (Helicoverpa zea); [3]): 50 to 100%
pest or weed control at 200 ppm [2, 4]: 0 to 80%
